In ChEMBL document CHEMBL1201862, “PubChem BioAssay data set” (2004):
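Test compounds were applied to cells in 96-well plates for 48 hours at 5 doses. GI50 is the concentration that inhibits growth by half.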 Active and inactive are the calls of the source. Cut-off read from the data, not from the text of the source: active = GI50 up to about 1.1 µM and inactive = higher.

What was measured:
Assay in all cases: NCI-60 cell line screen, 48 h
CCRF-CEM = system: CCRF-CEM
KM12 = system: KM12
SF-295 = system: SF-295
SR = system: SR
SK-OV-3 = system: SK-OV-3
EKVX = system: EKVX
786-0 = system: 786-0
U-251 = system: U-251
A549 = system: A549
SNB-19 = system: SNB-19
UO-31 = system: UO-31
OVCAR-3 = system: OVCAR-3
T47D = system: T47D
SF-539 = system: SF-539
MOLT-4 = system: MOLT-4
MDA-MB-231 = system: MDA-MB-231
DU-145 = system: DU-145
OVCAR-8 = system: OVCAR-8
HOP-62 = system: HOP-62
RXF 393 = system: RXF 393
SN12C = system: SN12C
MDA-MB-435 = system: MDA-MB-435
SF-268 = system: SF-268
TK-10 = system: TK-10
SK-MEL-5 = system: SK-MEL-5
SNB-75 = system: SNB-75
Hs-578T = system: Hs-578T
K562 = system: K562
HCT-116 = system: HCT-116
MDA-N = system: MDA-N
UACC-257 = system: UACC-257
MCF7 = system: MCF7
HCC 2998 = system: HCC 2998
NCI-H522 = system: NCI-H522
NCI-H460 = system: NCI-H460
OVCAR-4 = system: OVCAR-4
CAKI-1 = system: CAKI-1
UACC-62 = system: UACC-62
COLO 205 = system: COLO 205
RPMI-8226 = system: RPMI-8226
PC-3 = system: PC-3
M14 = system: M14
IGROV-1 = system: IGROV-1
HL-60 = system: HL-60
SK-MEL-28 = system: SK-MEL-28
NCI-H226 = system: NCI-H226
NCI/ADR-RES = system: NCI/ADR-RES
ACHN = system: ACHN
SW-620 = system: SW-620
BT-549 = system: BT-549
HCT-15 = system: HCT-15
NCI-H23 = system: NCI-H23
SK-MEL-2 = system: SK-MEL-2
A498 = system: A498
HT-29 = system: HT-29
Malme-3M = system: Malme-3M
OVCAR-5 = system: OVCAR-5

## COc1ccc(/C=C2\Oc3cc(OC(C)=O)ccc3C2=O)cc1
CCRF-CEM
  GI50: 73.6 µM (inactive)
KM12
  GI50: > 100 µM (inactive)
SF-295
  GI50: > 100 µM (inactive)
SR
  GI50: 60.8 µM (inactive)
SK-OV-3
  GI50: > 100 µM (inactive)
EKVX
  GI50: > 100 µM (inactive)
786-0
  GI50: > 100 µM (inactive)
U-251
  GI50: > 100 µM (inactive)
A549
  GI50: > 100 µM (inactive)
SNB-19
  GI50: > 100 µM (inactive)
UO-31
  GI50: > 100 µM (inactive)
OVCAR-3
  GI50: > 100 µM (inactive)
T47D
  GI50: > 100 µM (inactive)
SF-539
  GI50: > 100 µM (inactive)
MOLT-4
  GI50: > 100 µM (inactive)
MDA-MB-231
  GI50: > 100 µM (inactive)
DU-145
  GI50: > 100 µM (inactive)
OVCAR-8
  GI50: > 100 µM (inactive)
HOP-62
  GI50: > 100 µM (inactive)
RXF 393
  GI50: > 100 µM (inactive)
SN12C
  GI50: > 100 µM (inactive)
MDA-MB-435
  GI50: > 100 µM (inactive)
SF-268
  GI50: > 100 µM (inactive)
TK-10
  GI50: > 100 µM (inactive)
SK-MEL-5
  GI50: > 100 µM (inactive)
SNB-75
  GI50: > 100 µM (inactive)
Hs-578T
  GI50: > 100 µM (inactive)
K562
  GI50: 78.2 µM (inactive)
HCT-116
  GI50: > 100 µM (inactive)
MDA-N
  GI50: 76.2 µM (inactive)
UACC-257
  GI50: > 100 µM (inactive)
MCF7
  GI50: > 100 µM (inactive)
HCC 2998
  GI50: > 100 µM (inactive)
NCI-H522
  GI50: 19 µM (inactive)
NCI-H460
  GI50: > 100 µM (inactive)
OVCAR-4
  GI50: > 100 µM (inactive)
CAKI-1
  GI50: 21.1 µM (inactive)
UACC-62
  GI50: > 100 µM (inactive)
COLO 205
  GI50: > 100 µM (inactive)
RPMI-8226
  GI50: 57.3 µM (inactive)
PC-3
  GI50: > 100 µM (inactive)
M14
  GI50: > 100 µM (inactive)
IGROV-1
  GI50: > 100 µM (inactive)
HL-60
  GI50: 94 µM (inactive)
SK-MEL-28
  GI50: > 100 µM (inactive)
NCI-H226
  GI50: > 100 µM (inactive)
NCI/ADR-RES
  GI50: > 100 µM (inactive)
ACHN
  GI50: > 100 µM (inactive)
SW-620
  GI50: > 100 µM (inactive)
BT-549
  GI50: > 100 µM (inactive)
HCT-15
  GI50: 94.4 µM
NCI-H23
  GI50: > 100 µM (inactive)

## O=C(O)Cn1ccc(=O)c2cc([N+](=O)[O-])ccc21
CCRF-CEM
  GI50: > 100 µM (inactive)
KM12
  GI50: > 100 µM (inactive)
SK-MEL-2
  GI50: > 100 µM (inactive)
SF-295
  GI50: > 100 µM (inactive)
SR
  GI50: > 100 µM (inactive)
SK-OV-3
  GI50: > 100 µM (inactive)
786-0
  GI50: > 100 µM (inactive)
U-251
  GI50: > 100 µM (inactive)
A549
  GI50: > 100 µM (inactive)
SNB-19
  GI50: > 100 µM (inactive)
UO-31
  GI50: > 100 µM (inactive)
OVCAR-3
  GI50: > 100 µM (inactive)
T47D
  GI50: 33.1 µM (inactive)
SF-539
  GI50: > 100 µM (inactive)
MOLT-4
  GI50: > 100 µM (inactive)
MDA-MB-231
  GI50: 19.4 µM (inactive)
DU-145
  GI50: 38.1 µM (inactive)
OVCAR-8
  GI50: > 100 µM (inactive)
HOP-62
  GI50: > 100 µM (inactive)
SN12C
  GI50: > 100 µM (inactive)
MDA-MB-435
  GI50: > 100 µM (inactive)
SF-268
  GI50: > 100 µM (inactive)
TK-10
  GI50: > 100 µM (inactive)
SK-MEL-5
  GI50: > 100 µM (inactive)
SNB-75
  GI50: > 100 µM (inactive)
Hs-578T
  GI50: > 100 µM (inactive)
K562
  GI50: > 100 µM (inactive)
HCT-116
  GI50: > 100 µM (inactive)
A498
  GI50: > 100 µM (inactive)
MDA-N
  GI50: > 100 µM (inactive)
UACC-257
  GI50: > 100 µM (inactive)
MCF7
  GI50: > 100 µM (inactive)
HCC 2998
  GI50: > 100 µM (inactive)
NCI-H522
  GI50: > 100 µM (inactive)
HT-29
  GI50: > 100 µM (inactive)
NCI-H460
  GI50: > 100 µM (inactive)
Malme-3M
  GI50: > 100 µM (inactive)
CAKI-1
  GI50: > 100 µM (inactive)
UACC-62
  GI50: > 100 µM (inactive)
COLO 205
  GI50: 48.8 µM (inactive)
OVCAR-5
  GI50: > 100 µM (inactive)
PC-3
  GI50: > 100 µM (inactive)
M14
  GI50: > 100 µM (inactive)
IGROV-1
  GI50: > 100 µM (inactive)
HL-60
  GI50: > 100 µM (inactive)
SK-MEL-28
  GI50: > 100 µM (inactive)
NCI-H226
  GI50: > 100 µM (inactive)
NCI/ADR-RES
  GI50: > 100 µM (inactive)
ACHN
  GI50: > 100 µM (inactive)
SW-620
  GI50: > 100 µM (inactive)
BT-549
  GI50: > 100 µM (inactive)
HCT-15
  GI50: > 100 µM
NCI-H23
  GI50: > 100 µM (inactive)
